Results from ChEMBL document CHEMBL1909294, “Translating clinical findings into knowledge in drug safety evaluation--drug induced liver injury prediction system (DILIps)” (PLoS Comput Biol, 2011).

Legend:
Hepatotoxicity [1] = test system: Hepatotoxicity;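 as to HepSE Combined Scores: combined hepatic side effect score as listed in the training data of the Drug Induced Liver Injury Prediction System (DILIps)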;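 as to HepSE cirrhosis: cirrhosis hepatic side effect score taken from the DILIps (drug-induced liver injury prediction) training set; call rule not given here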; as to HepSE hepatic failure: call rule not given here;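 as to HepSE hepatitis: Hepatitis-related hepatic side effect score taken from the training data of DILIps, a prediction system for drug-induced liver injury; call rule not given here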;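 as to HepSE jaundice: Jaundice-related hepatic side-effect score drawn from the training data of the DILIps (drug-induced liver injury prediction system); call rule not given here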; as to HepSE liver disease: call rule not given here;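 as to HepSE liver function tests abnormal: hepatic side effect score taken from the DILIps (drug-induced liver injury prediction system) training data, here covering abnormal liver function test findings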
Hepatotoxicity [2] = test system: Hepatotoxicity; remark: listed apart in the source;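 as to HepSE Combined Scores: combined hepatic side effect score as listed in the training data of the Drug Induced Liver Injury Prediction System (DILIps)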;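 as to HepSE cirrhosis: cirrhosis hepatic side effect score taken from the DILIps (drug-induced liver injury prediction) training set; call rule not given here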; as to HepSE hepatic failure: call rule not given here;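 as to HepSE hepatitis: Hepatitis-related hepatic side effect score taken from the training data of DILIps, a prediction system for drug-induced liver injury; call rule not given here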;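 as to HepSE jaundice: Jaundice-related hepatic side-effect score drawn from the training data of the DILIps (drug-induced liver injury prediction system); call rule not given here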; as to HepSE liver disease: call rule not given here;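 as to HepSE liver function tests abnormal: hepatic side effect score taken from the DILIps (drug-induced liver injury prediction system) training data, here covering abnormal liver function test findings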
Hepatotoxicity [3] = test system: Hepatotoxicity; remark: listed apart in the source;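 as to HepSE Combined Scores: combined hepatic side effect score as listed in the training data of the Drug Induced Liver Injury Prediction System (DILIps)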;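 as to HepSE cirrhosis: cirrhosis hepatic side effect score taken from the DILIps (drug-induced liver injury prediction) training set; call rule not given here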; as to HepSE hepatic failure: call rule not given here;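 as to HepSE hepatitis: Hepatitis-related hepatic side effect score taken from the training data of DILIps, a prediction system for drug-induced liver injury; call rule not given here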;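 as to HepSE jaundice: Jaundice-related hepatic side-effect score drawn from the training data of the DILIps (drug-induced liver injury prediction system); call rule not given here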; as to HepSE liver disease: call rule not given here;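 as to HepSE liver function tests abnormal: hepatic side effect score taken from the DILIps (drug-induced liver injury prediction system) training data, here covering abnormal liver function test findings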
Hepatotoxicity [4] = test system: Hepatotoxicity; remark: listed apart in the source;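 as to HepSE Combined Scores: combined hepatic side effect score as listed in the training data of the Drug Induced Liver Injury Prediction System (DILIps)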;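 as to HepSE cirrhosis: cirrhosis hepatic side effect score taken from the DILIps (drug-induced liver injury prediction) training set; call rule not given here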; as to HepSE hepatic failure: call rule not given here;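 as to HepSE hepatitis: Hepatitis-related hepatic side effect score taken from the training data of DILIps, a prediction system for drug-induced liver injury; call rule not given here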; as to HepSE liver disease: call rule not given here;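 as to HepSE liver function tests abnormal: hepatic side effect score taken from the DILIps (drug-induced liver injury prediction system) training data, here covering abnormal liver function test findings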
Hepatotoxicity [5] = test system: Hepatotoxicity; remark: listed apart in the source; as to HepSE hepatic failure: call rule not given here; as to HepSE liver disease: call rule not given here
Hepatotoxicity [6] = test system: Hepatotoxicity; remark: listed apart in the source; as to HepSE hepatic failure: call rule not given here; as to HepSE liver disease: call rule not given here
Hepatotoxicity [7] = test system: Hepatotoxicity; remark: listed apart in the source
Hepatotoxicity [8] = test system: Hepatotoxicity; remark: listed apart in the source
Hepatotoxicity [9] = test system: Hepatotoxicity; remark: listed apart in the source
Hepatotoxicity [10] = test system: Hepatotoxicity; remark: listed apart in the source
Hepatotoxicity [11] = test system: Hepatotoxicity; remark: listed apart in the source
Hepatotoxicity [12] = test system: Hepatotoxicity; remark: listed apart in the source
Hepatotoxicity [13] = test system: Hepatotoxicity; remark: listed apart in the source
Hepatotoxicity [14] = test system: Hepatotoxicity; remark: listed apart in the source

In the case of `NCCCNCCSP(=O)(O)O` [AMIFOSTINE], the “HepSE_liver function tests abnormal” value (Hepatotoxicity [1]; Liver) is reported as 0, the HepSE_hepatitis (Hepatotoxicity [2]; Liver) is reported as 0 and the HepSE_bilirubinemia (Hepatotoxicity [3]; Liver) is reported as 0. For the same molecule, the HepSE_hepatic failure (Hepatotoxicity [4]; Liver) was 0, the HepSE_cirrhosis (Hepatotoxicity [5]; Liver) was 0 and the HepSE_liver disease (Hepatotoxicity [6]; Liver) was 0. For the same molecule, the “HepSE_Combined Scores” value (Hepatotoxicity [7]; Liver) was 0, the HepSE_jaundice (Hepatotoxicity [8]; Liver) was 0 and the HepSE_hepatomegaly (Hepatotoxicity [9]; Liver) was 0. For the same molecule, the “HepSE_elevated liver function tests” value (Hepatotoxicity [10]; Liver) was 0, the HepSE_cholelithiasis (Hepatotoxicity [11]; Liver) was 0 and the HepSE_cholecystitis (Hepatotoxicity [12]; Liver) was 0. It also gave a HepSE_liver fatty (Hepatotoxicity [13]; Liver) of 0 and a HepSE_hepatic necrosis (Hepatotoxicity [14]; Liver) of 0.

For `NCC[C@H](O)C(=O)N[C@@H]1C[C@H](N)[C@@H](O[C@H]2O[C@H](CN)[C@@H](O)[C@H](O)[C@H]2O)[C@H](O)[C@H]1O[C@H]1O[C@H](CO)[C@@H](O)[C@H](N)[C@H]1O` [AMIKACIN], the “HepSE_liver function tests abnormal” value (Hepatotoxicity [1]) was 0, the HepSE_hepatitis (Hepatotoxicity [2]) was 0 and the HepSE_bilirubinemia (Hepatotoxicity [3]) was 0. The HepSE_hepatic failure (Hepatotoxicity [4]) was 0, the HepSE_cirrhosis (Hepatotoxicity [5]) was 0 and the HepSE_liver disease (Hepatotoxicity [6]) was 0. The “HepSE_Combined Scores” value (Hepatotoxicity [7]) was 0, the HepSE_jaundice (Hepatotoxicity [8]) was 0 and the HepSE_hepatomegaly (Hepatotoxicity [9]) was 0. For the same molecule, the “HepSE_elevated liver function tests” value (Hepatotoxicity [10]) was 0, the HepSE_cholelithiasis (Hepatotoxicity [11]) was 0 and the HepSE_cholecystitis (Hepatotoxicity [12]) was 0. The HepSE_liver fatty (Hepatotoxicity [13]) was 0 and the HepSE_hepatic necrosis (Hepatotoxicity [14]) was 0.

In the case of `N=C(N)NC(=O)c1nc(Cl)c(N)nc1N` [AMILORIDE], the “HepSE_liver function tests abnormal” value (Hepatotoxicity [1]) is reported as 0, the HepSE_hepatitis (Hepatotoxicity [2]) is reported as 0 and the HepSE_bilirubinemia (Hepatotoxicity [3]) is reported as 0. It also gave a HepSE_hepatic failure (Hepatotoxicity [4]) of 0, a HepSE_cirrhosis (Hepatotoxicity [5]) of 0 and a HepSE_liver disease (Hepatotoxicity [6]) of 1. The “HepSE_Combined Scores” value (Hepatotoxicity [7]) was 2, the HepSE_jaundice (Hepatotoxicity [8]) was 1 and the HepSE_hepatomegaly (Hepatotoxicity [9]) was 0. For the same molecule, the “HepSE_elevated liver function tests” value (Hepatotoxicity [10]) was 0, the HepSE_cholelithiasis (Hepatotoxicity [11]) was 0 and the HepSE_cholecystitis (Hepatotoxicity [12]) was 0. For the same molecule, the HepSE_liver fatty (Hepatotoxicity [13]) was 0 and the HepSE_hepatic necrosis (Hepatotoxicity [14]) was 0.

In the case of `NCCCCCC(=O)O` [AMINOCAPROIC ACID], the “HepSE_liver function tests abnormal” value (Hepatotoxicity [1]) is reported as 0, the HepSE_hepatitis (Hepatotoxicity [2]) is reported as 0 and the HepSE_bilirubinemia (Hepatotoxicity [3]) is reported as 0. For the same molecule, the HepSE_hepatic failure (Hepatotoxicity [4]) was 0, the HepSE_cirrhosis (Hepatotoxicity [5]) was 0 and the HepSE_liver disease (Hepatotoxicity [6]) was 0. The “HepSE_Combined Scores” value (Hepatotoxicity [7]) was 0, the HepSE_jaundice (Hepatotoxicity [8]) was 0 and the HepSE_hepatomegaly (Hepatotoxicity [9]) was 0. The “HepSE_elevated liver function tests” value (Hepatotoxicity [10]) was 0, the HepSE_cholelithiasis (Hepatotoxicity [11]) was 0 and the HepSE_cholecystitis (Hepatotoxicity [12]) was 0. It also gave a HepSE_liver fatty (Hepatotoxicity [13]) of 0 and a HepSE_hepatic necrosis (Hepatotoxicity [14]) of 0.

For `CCC1(c2ccc(N)cc2)CCC(=O)NC1=O` (configuration not stated) [AMINOGLUTETHIMIDE], the “HepSE_liver function tests abnormal” value (Hepatotoxicity [1]) was 0, the HepSE_hepatitis (Hepatotoxicity [2]) was 0 and the HepSE_bilirubinemia (Hepatotoxicity [3]) was 0. The HepSE_hepatic failure (Hepatotoxicity [4]) was 0, the HepSE_cirrhosis (Hepatotoxicity [5]) was 0 and the HepSE_liver disease (Hepatotoxicity [6]) was 0. For the same molecule, the “HepSE_Combined Scores” value (Hepatotoxicity [7]) was 0, the HepSE_jaundice (Hepatotoxicity [8]) was 0 and the HepSE_hepatomegaly (Hepatotoxicity [9]) was 0. For the same molecule, the “HepSE_elevated liver function tests” value (Hepatotoxicity [10]) was 0, the HepSE_cholelithiasis (Hepatotoxicity [11]) was 0 and the HepSE_cholecystitis (Hepatotoxicity [12]) was 0. For the same molecule, the HepSE_liver fatty (Hepatotoxicity [13]) was 0 and the HepSE_hepatic necrosis (Hepatotoxicity [14]) was 0.

`Nc1ccc(C(=O)NCC(=O)O)cc1` [AMINOHIPPURIC ACID] was tested, and the “HepSE_liver function tests abnormal” value (Hepatotoxicity [1]) was 0, the HepSE_hepatitis (Hepatotoxicity [2]) was 0 and the HepSE_bilirubinemia (Hepatotoxicity [3]) was 0. The HepSE_hepatic failure (Hepatotoxicity [4]) was 0, the HepSE_cirrhosis (Hepatotoxicity [5]) was 0 and the HepSE_liver disease (Hepatotoxicity [6]) was 0. The “HepSE_Combined Scores” value (Hepatotoxicity [7]) was 0, the HepSE_jaundice (Hepatotoxicity [8]) was 0 and the HepSE_hepatomegaly (Hepatotoxicity [9]) was 0. The “HepSE_elevated liver function tests” value (Hepatotoxicity [10]) was 0, the HepSE_cholelithiasis (Hepatotoxicity [11]) was 0 and the HepSE_cholecystitis (Hepatotoxicity [12]) was 0. The HepSE_liver fatty (Hepatotoxicity [13]) was 0 and the HepSE_hepatic necrosis (Hepatotoxicity [14]) was 0.

With `NCC(=O)CCC(=O)O` [AMINOLEVULINIC ACID] the “HepSE_liver function tests abnormal” value (Hepatotoxicity [1]) was 0, the HepSE_hepatitis (Hepatotoxicity [2]) was 0 and the HepSE_bilirubinemia (Hepatotoxicity [3]) was 0. It also gave a HepSE_hepatic failure (Hepatotoxicity [4]) of 0, a HepSE_cirrhosis (Hepatotoxicity [5]) of 0 and a HepSE_liver disease (Hepatotoxicity [6]) of 0. For the same molecule, the “HepSE_Combined Scores” value (Hepatotoxicity [7]) was 0, the HepSE_jaundice (Hepatotoxicity [8]) was 0 and the HepSE_hepatomegaly (Hepatotoxicity [9]) was 0. The “HepSE_elevated liver function tests” value (Hepatotoxicity [10]) was 0, the HepSE_cholelithiasis (Hepatotoxicity [11]) was 0 and the HepSE_cholecystitis (Hepatotoxicity [12]) was 0. For the same molecule, the HepSE_liver fatty (Hepatotoxicity [13]) was 0 and the HepSE_hepatic necrosis (Hepatotoxicity [14]) was 0.

With `Cn1c(=O)c2[nH]cnc2n(C)c1=O.Cn1c(=O)c2[nH]cnc2n(C)c1=O.NCCN` [AMINOPHYLLINE] the “HepSE_liver function tests abnormal” value (Hepatotoxicity [1]) was 0, the HepSE_hepatitis (Hepatotoxicity [2]) was 0 and the HepSE_bilirubinemia (Hepatotoxicity [3]) was 0. The HepSE_hepatic failure (Hepatotoxicity [4]) was 0, the HepSE_cirrhosis (Hepatotoxicity [5]) was 0 and the HepSE_liver disease (Hepatotoxicity [6]) was 0. For the same molecule, the “HepSE_Combined Scores” value (Hepatotoxicity [7]) was 0, the HepSE_jaundice (Hepatotoxicity [8]) was 0 and the HepSE_hepatomegaly (Hepatotoxicity [9]) was 0. The “HepSE_elevated liver function tests” value (Hepatotoxicity [10]) was 0, the HepSE_cholelithiasis (Hepatotoxicity [11]) was 0 and the HepSE_cholecystitis (Hepatotoxicity [12]) was 0. It also gave a HepSE_liver fatty (Hepatotoxicity [13]) of 0 and a HepSE_hepatic necrosis (Hepatotoxicity [14]) of 0.

For `CN(C)CCC=C1c2ccccc2CCc2ccccc21` [AMITRIPTYLINE], the “HepSE_liver function tests abnormal” value (Hepatotoxicity [1]) was 0, the HepSE_hepatitis (Hepatotoxicity [2]) was 1 and the HepSE_bilirubinemia (Hepatotoxicity [3]) was 0. It also gave a HepSE_hepatic failure (Hepatotoxicity [4]) of 1, a HepSE_cirrhosis (Hepatotoxicity [5]) of 0 and a HepSE_liver disease (Hepatotoxicity [6]) of 0. The “HepSE_Combined Scores” value (Hepatotoxicity [7]) was 3, the HepSE_jaundice (Hepatotoxicity [8]) was 1 and the HepSE_hepatomegaly (Hepatotoxicity [9]) was 0. For the same molecule, the “HepSE_elevated liver function tests” value (Hepatotoxicity [10]) was 0, the HepSE_cholelithiasis (Hepatotoxicity [11]) was 0 and the HepSE_cholecystitis (Hepatotoxicity [12]) was 0. The HepSE_liver fatty (Hepatotoxicity [13]) was 0 and the HepSE_hepatic necrosis (Hepatotoxicity [14]) was 0.

In the case of `CCOC(=O)C1=C(COCCN)NC(C)=C(C(=O)OC)C1c1ccccc1Cl` (configuration not stated) [AMLODIPINE], the “HepSE_liver function tests abnormal” value (Hepatotoxicity [1]) is reported as 0, the HepSE_hepatitis (Hepatotoxicity [2]) is reported as 1 and the HepSE_bilirubinemia (Hepatotoxicity [3]) is reported as 0. For the same molecule, the HepSE_hepatic failure (Hepatotoxicity [4]) was 0, the HepSE_cirrhosis (Hepatotoxicity [5]) was 0 and the HepSE_liver disease (Hepatotoxicity [6]) was 0. For the same molecule, the “HepSE_Combined Scores” value (Hepatotoxicity [7]) was 2, the HepSE_jaundice (Hepatotoxicity [8]) was 1 and the HepSE_hepatomegaly (Hepatotoxicity [9]) was 0. For the same molecule, the “HepSE_elevated liver function tests” value (Hepatotoxicity [10]) was 0, the HepSE_cholelithiasis (Hepatotoxicity [11]) was 0 and the HepSE_cholecystitis (Hepatotoxicity [12]) was 0. It also gave a HepSE_liver fatty (Hepatotoxicity [13]) of 0 and a HepSE_hepatic necrosis (Hepatotoxicity [14]) of 0.

In the case of `Cl.N` [AMMONIUM CHLORIDE], the “HepSE_liver function tests abnormal” value (Hepatotoxicity [1]) is reported as 0, the HepSE_hepatitis (Hepatotoxicity [2]) is reported as 0 and the HepSE_bilirubinemia (Hepatotoxicity [3]) is reported as 0. It also gave a HepSE_hepatic failure (Hepatotoxicity [4]) of 0, a HepSE_cirrhosis (Hepatotoxicity [5]) of 0 and a HepSE_liver disease (Hepatotoxicity [6]) of 0. The “HepSE_Combined Scores” value (Hepatotoxicity [7]) was 0, the HepSE_jaundice (Hepatotoxicity [8]) was 0 and the HepSE_hepatomegaly (Hepatotoxicity [9]) was 0. The “HepSE_elevated liver function tests” value (Hepatotoxicity [10]) was 0, the HepSE_cholelithiasis (Hepatotoxicity [11]) was 0 and the HepSE_cholecystitis (Hepatotoxicity [12]) was 0. For the same molecule, the HepSE_liver fatty (Hepatotoxicity [13]) was 0 and the HepSE_hepatic necrosis (Hepatotoxicity [14]) was 0.

`Clc1ccc2c(c1)C(N1CCNCC1)=Nc1ccccc1O2` [AMOXAPINE] was tested, and the “HepSE_liver function tests abnormal” value (Hepatotoxicity [1]) was 0, the HepSE_hepatitis (Hepatotoxicity [2]) was 1 and the HepSE_bilirubinemia (Hepatotoxicity [3]) was 0. It also gave a HepSE_hepatic failure (Hepatotoxicity [4]) of 0, a HepSE_cirrhosis (Hepatotoxicity [5]) of 0 and a HepSE_liver disease (Hepatotoxicity [6]) of 0. The “HepSE_Combined Scores” value (Hepatotoxicity [7]) was 2, the HepSE_jaundice (Hepatotoxicity [8]) was 1 and the HepSE_hepatomegaly (Hepatotoxicity [9]) was 0. For the same molecule, the “HepSE_elevated liver function tests” value (Hepatotoxicity [10]) was 0, the HepSE_cholelithiasis (Hepatotoxicity [11]) was 0 and the HepSE_cholecystitis (Hepatotoxicity [12]) was 0. The HepSE_liver fatty (Hepatotoxicity [13]) was 0 and the HepSE_hepatic necrosis (Hepatotoxicity [14]) was 0.

In the case of `CC1(C)S[C@@H]2[C@H](NC(=O)[C@H](N)c3ccc(O)cc3)C(=O)N2[C@H]1C(=O)O` [AMOXICILLIN], the “HepSE_liver function tests abnormal” value (Hepatotoxicity [1]) is reported as 0, the HepSE_hepatitis (Hepatotoxicity [2]) is reported as 1 and the HepSE_bilirubinemia (Hepatotoxicity [3]) is reported as 0. It also gave a HepSE_hepatic failure (Hepatotoxicity [4]) of 0, a HepSE_cirrhosis (Hepatotoxicity [5]) of 0 and a HepSE_liver disease (Hepatotoxicity [6]) of 0. The “HepSE_Combined Scores” value (Hepatotoxicity [7]) was 2, the HepSE_jaundice (Hepatotoxicity [8]) was 1 and the HepSE_hepatomegaly (Hepatotoxicity [9]) was 0. For the same molecule, the “HepSE_elevated liver function tests” value (Hepatotoxicity [10]) was 0, the HepSE_cholelithiasis (Hepatotoxicity [11]) was 0 and the HepSE_cholecystitis (Hepatotoxicity [12]) was 0. For the same molecule, the HepSE_liver fatty (Hepatotoxicity [13]) was 0 and the HepSE_hepatic necrosis (Hepatotoxicity [14]) was 0.
